Our source for the TGI and GI50 values is PubChem BioAssay (NCI).

SMILES strings stand for the structures.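 Cells were grown in 96-well plates and exposed to each compound for 48 hours at five concentrations; endpoints were interpolated linearly between bracketing concentrations, or set to the highest concentration if not reached. Abbreviation: GI50, concentration required for 50% inhibition of growth. At the TGI there is no net growth.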 Where a SMILES comes first, the peptide text is derived from it. [ ]: non-standard residue; d: D form. The star is where a group is joined. ξ: configuration not given here. dIva = CC[C@@](C)(N)C(=O)O; Aib = CC(C)(N)C(=O)O; ξP = O=C(O)C1CCCN1; βAla = NCCC(=O)O; X5 = OCN*

Among the test systems are SNB-75 CNS; T-47D breast; RPMI-8226 leukemia; SR leukemia; CAKI-1 renal; CCRF-CEM leukemia; NCI/ADR-RES ovarian.
Holding throughout (assay): NCI tumour cell line growth inhibition, 48 h

On to `Nc1ncnc2c1ncn2C1OC(C(=O)OCCO)C(O)C1O` (configuration not stated), for which the TGI in the test with SNB-75 CNS, in the test with T-47D breast, with RPMI-8226 leukemia, in the test on SR leukemia, with CAKI-1 renal and in the test with CCRF-CEM leukemia was > 100 µM throughout. Besides, the TGI in the test with NCI/ADR-RES ovarian was > 100 µM.

Consider `COC(=O)C1=C(O)C(C(=O)OC)[C@@]2(O)[C@@H](C(=O)OC)C(c3ccccc3Cl)C[C@@H]1[C@@H]2C(=O)OC` (some centres not stated), for which the GI50 in the test on T-47D breast was 11.6 µM; in the test on RPMI-8226 leukemia, 1.88 µM; in the test with CAKI-1 renal it was 3.47 µM; with CCRF-CEM leukemia, 1.64 µM; in the test with NCI/ADR-RES ovarian it was 3.16 µM. In addition, the TGI with T-47D breast came out at 40.3 µM; in the test with RPMI-8226 leukemia, 6.2 µM; in the test with CAKI-1 renal it was 11.2 µM; in the test on CCRF-CEM leukemia it was 5.12 µM; with NCI/ADR-RES ovarian it was 15.9 µM.

Turning to `COc1ccc(OC)c(/C=C/C(=O)c2ccc3cc(OC)ccc3c2)c1`, the GI50 was 1.78 µM in the test on SNB-75 CNS, 0.811 µM in the test with T-47D breast, 4.53 µM in the test on RPMI-8226 leukemia and 1.2 µM with CAKI-1 renal. For the same molecule, the TGI in the test on SNB-75 CNS is 4.53 µM; in the test on T-47D breast, 3.33 µM; in the test on RPMI-8226 leukemia it was > 37.8 µM; in the test with CAKI-1 renal, 10.6 µM; in the test on NCI/ADR-RES ovarian it was > 13.8 µM.

For `Nc1cc(N)c2nc(-c3ccccc3)c(Oc3ccc(Cl)c(Cl)c3)nc2c1`, the GI50 is 24.5 µM in the test on T-47D breast; 3.51 µM with RPMI-8226 leukemia; 3.36 µM in the test on SR leukemia; 14.5 µM with CAKI-1 renal; 2.98 µM in the test with CCRF-CEM leukemia; 11.8 µM in the test with NCI/ADR-RES ovarian. Moreover, the TGI with T-47D breast is 79.1 µM; with RPMI-8226 leukemia, > 100 µM; with SR leukemia it was 24.2 µM; in the test on CAKI-1 renal it was 35.9 µM; in the test with CCRF-CEM leukemia, > 100 µM; with NCI/ADR-RES ovarian it was 36.1 µM.

`NC(N)=NC(N)=NCc1ccco1`: the GI50 in the test on SNB-75 CNS is > 1250 µM; in the test on T-47D breast it was > 1250 µM; in the test with RPMI-8226 leukemia it was 818 µM; in the test on CAKI-1 renal it was 758 µM; in the test on NCI/ADR-RES ovarian, > 1250 µM. For the same molecule, the TGI in the test with SNB-75 CNS, with T-47D breast, with CAKI-1 renal and in the test on NCI/ADR-RES ovarian was > 1250 µM in each case.

In the case of `O=S1(=O)C=C(c2ccccc2)C(c2ccccc2)=C1`, the GI50 in the test with SNB-75 CNS was 1.33 µM; in the test with RPMI-8226 leukemia, 3.3 µM; with SR leukemia, 2.8 µM; in the test with CAKI-1 renal, 1.16 µM; in the test with CCRF-CEM leukemia, 3 µM; with NCI/ADR-RES ovarian, 2.73 µM. For the same molecule, the TGI stood at 2.6 µM in the test on SNB-75 CNS; 7.92 µM in the test on RPMI-8226 leukemia; 13.9 µM with SR leukemia; 2.63 µM with CAKI-1 renal; 7.6 µM in the test on CCRF-CEM leukemia; 9.31 µM in the test on NCI/ADR-RES ovarian.

`COc1ccc2c(c1)C(=O)c1c-2n(CCCNCCO)c(=O)c2cc([N+](=O)[O-])ccc12`: the GI50 in the test with SNB-75 CNS, in the test with RPMI-8226 leukemia, in the test with SR leukemia, in the test with CAKI-1 renal, with CCRF-CEM leukemia and in the test on NCI/ADR-RES ovarian was < 0.01 µM in each case. In addition, the TGI was 0.172 µM in the test with SNB-75 CNS; 0.0469 µM in the test on RPMI-8226 leukemia; < 0.01 µM in the test with SR leukemia; 0.0602 µM with CAKI-1 renal; < 0.01 µM with CCRF-CEM leukemia; 1.68 µM with NCI/ADR-RES ovarian.

In the case of `COc1ccc2c(c1)O/C(=C\c1ccc([N+](=O)[O-])s1)C2=O`, the GI50 was 2.36 µM with SNB-75 CNS; 1.69 µM in the test with RPMI-8226 leukemia; 0.12 µM in the test on SR leukemia; 0.478 µM in the test with CCRF-CEM leukemia; 4.52 µM with NCI/ADR-RES ovarian. The TGI was 39.2 µM with SNB-75 CNS; > 100 µM with RPMI-8226 leukemia; 0.759 µM with SR leukemia; > 100 µM in the test with CCRF-CEM leukemia; > 100 µM in the test on NCI/ADR-RES ovarian.

As for `CC(=O)Nc1cc(CN2CCCCC2)c(O)c2ncccc12`, the TGI in the test with T-47D breast was > 100 µM; in the test with RPMI-8226 leukemia, 51.1 µM; with SR leukemia it was 37.5 µM; with CAKI-1 renal it was > 100 µM; with CCRF-CEM leukemia it was > 100 µM; in the test with NCI/ADR-RES ovarian, > 100 µM.

`COc1ccc(-c2cc(=O)c3cccnc3[nH]2)cc1`: the TGI in the test with T-47D breast is > 100 µM; in the test with RPMI-8226 leukemia it was > 100 µM; in the test with CAKI-1 renal, > 100 µM; in the test on CCRF-CEM leukemia, 85.6 µM; in the test with NCI/ADR-RES ovarian it was > 100 µM.

Turning to `CC(C)CC1NC(=O)C(C(C)C)NC(=O)CC(C)COC(=O)C(CC(C)C)N(C)C(=O)C(C(C)C)NC(=O)C(C(C)C)OC1=O` (configuration not stated), the TGI in the test with SNB-75 CNS was 30.2 µM; with T-47D breast it was > 50 µM; in the test with SR leukemia it was > 50 µM; in the test with CAKI-1 renal, > 50 µM; in the test on CCRF-CEM leukemia it was > 50 µM; in the test with NCI/ADR-RES ovarian it was > 50 µM.

With `CSc1nc(-c2cccc(NC(=O)CCl)c2)c(C#N)c(=O)n1C`, the GI50 in the test on SNB-75 CNS was 1.19 µM; with T-47D breast, 1.71 µM; in the test on RPMI-8226 leukemia, 1.75 µM; with CAKI-1 renal it was 1.68 µM; in the test on CCRF-CEM leukemia it was 0.0989 µM. Moreover, the TGI in the test on SNB-75 CNS stood at 2.47 µM; with T-47D breast, 4.19 µM; in the test with RPMI-8226 leukemia, 4.88 µM; in the test on CAKI-1 renal, 3.07 µM; in the test with CCRF-CEM leukemia, 9.37 µM.

With `COn1cc(C(=O)N=C(SC)SC)c2ccccc21`, the GI50 in the test with SNB-75 CNS was 68.7 µM; in the test on T-47D breast, 75.1 µM; in the test with RPMI-8226 leukemia it was 17.9 µM; with CAKI-1 renal, 22.7 µM; in the test on CCRF-CEM leukemia it was 22.3 µM; in the test on NCI/ADR-RES ovarian it was 18.2 µM. Further, the TGI in the test on SNB-75 CNS was > 100 µM; in the test on T-47D breast it was > 100 µM; with RPMI-8226 leukemia, > 100 µM; with CAKI-1 renal, 63.8 µM; with CCRF-CEM leukemia it was 91 µM; in the test with NCI/ADR-RES ovarian, 42.5 µM.

For `CC[C@@](C)(NC(=O)[C@H](C)NC(=O)CCNC(=O)C(C)(C)NC(=O)[C@H](C)NC(=O)[C@@H]1CCCN1C(=O)[C@@](C)(CC)NC(=O)[C@H](Cc1ccccc1)NC(=O)C1CCCN1C(=O)C(C)(C)NC(=O)C1CCCN1C(=O)C(C)(C)NC(C)=O)C(=O)NCCC(=O)N[C@@H](CC(C)C)C(=O)NC(C)(C)C(=O)NCCC(=O)N[C@@H](CC(C)C)C(=O)NC(C)(C)C(=O)NC(C)(C)C(=O)N[C@@H](CC(C)C)C(=O)NCCC(=O)NCO` (some centres not stated) (Ac-[Aib][ξP][Aib][ξP]F[dIva]PA[Aib][βAla]A[dIva][βAla]L[Aib][βAla]L[Aib][Aib]L[βAla]-X5), the GI50 was 0.0608 µM in the test on SNB-75 CNS; 0.0739 µM in the test with T-47D breast; 0.272 µM in the test on SR leukemia; 0.231 µM in the test on CAKI-1 renal; 0.224 µM in the test on CCRF-CEM leukemia; 0.238 µM with NCI/ADR-RES ovarian. Also, the TGI in the test on SNB-75 CNS is 0.307 µM; in the test on T-47D breast, 0.302 µM; with SR leukemia it was 0.646 µM; in the test on CAKI-1 renal, 0.448 µM; with CCRF-CEM leukemia it was 0.577 µM; in the test on NCI/ADR-RES ovarian, 0.488 µM.
